Source: patent US6812010B1, “Method for enzymatic preparation of homogentisate” (Aventis Cropscience SA, priority 1997, dated 2004)

Legend:
[1] = tested on: HPP-oxidase (protein extract from Arthrobacter globiformis); test: HPP-oxidase activity assay with inhibition by an HPPD inhibitor (HPLC detection of HPA); assay type: biochemical; details: 100 μM of HPPD inhibitor; 30° C., 5 min
Procedure: The cell pellet, which is approximately 3.4 g, is resuspended in 7 ml of extraction buffer (0.05 M potassium phosphate pH 7.5, 0.1 mM TPP, 0.1 mM MgCl2 and 5 mM mercaptoethanol) and sonicated twice at 23 kHz for 2.5 min. The resulting suspension is centrifuged at 44,000×g for 20 min. The harvested supernatant is again centrifuged at 100,000×g for 60 min. 0.7 ml of 2% protamine sulphate in the extraction buffer is added to the new 7-ml supernatant, followed by gentle stirring. The precipitate which forms is removed by a centrifugation at 20,000×g for 20 min. Ammonium sulphate is gradually added to the supernatant thus obtained so as to reach 60% saturation. This new preparation is stirred for 30 min., and the precipitate formed harvested by centrifugation at 20,000×g for 20 min. The pellet is redissolved in 0.5 ml of extraction buffer and aliquoted in 0.1-ml fractions, these fractions being kept at −80° C. before use.
The HPP-oxidase activity is measured in a 96-well microtitration plate with 200 μl of reaction per well consisting of […] of 67 mM sodium phosphate pH 7.4, 10 μl of 13.4 mM glutathione, 10 μl of 67 mM MgCl2, 10 μl of 26.7 mM TPP, 10 μl of 67 μM FAD, […] (i.e. approximately 6 μg) and 10 μl of 2.5 mM HPP. […]
The plate is then centrifuged at 2000 rpm for 15 min., and the supernatant is analysed by HPLC. […]

[2] = tested on: HPA-hydroxylase (protein extract from Pseudomonas acidovorans); test: HPA-hydroxylase activity assay with inhibition by an HPPD inhibitor (HPLC detection of HMO); assay type: biochemical; details: 100 μM of HPPD inhibitor; 30° C., 5 min
Procedure: The cell pellet, which is approximately 0.5 g, is resuspended in 1.5 ml of extraction buffer (0.1 M potassium phosphate pH 7.2, 1 mM DTE and 5 mM MgMgSO4) and sonicated twice at 23 kHz for 2.5 min. The resulting suspension is centrifuged at 44,000×g for 20 min. The harvested supernatant is again centrifuged at 100,000×g for 60 min. The new supernatant is aliquoted in 0.1-ml fractions, these fractions being kept at −80° C. before use. The HPA-hydroxylase activity is measured in a 96-well microtitration plate with 200 μl of reaction per well consisting of 150 μl of 0.1 M sodium phosphate fits pH 7.2, 10 μl of 20 mM DTE, 10 μl of 3 mM NADH, 15 μl of 67 μM FAD, 10 μl of protein (i.e. approximately 7 μg) and 5 μl of 10 mM HPA. When an assay for inhibition by an HPPD inhibitor is carried out, 2 μl of 10 mM 4-[4-trifluoromethyl-2-(methylsulphonyl)benzoyl]-5-cyclopropylisoxazole are added to a phosphate buffer containing 20% of DMSO. The reaction is initiated by adding the substrate, HPA; it takes place at 30° C. for 5 min. with stirring. The reaction is stopped by adding 33 μl of 25% perchloric acid. The plate is then centrifuged at 2000 rpm for 15 min., and the supernatant is analysed by HPLC. 10 μl of the supernatant is injected onto a Spherisorb ODS2 column equilibrated with buffer A (5.5% acetonitrile, 0.1% TFA) at the flow rate of 1.5 ml/min. The detection is carried out at 292 nm. […]

CS(=O)(=O)c1cc(C(F)(F)F)ccc1C(=O)c1cnoc1C1CC1 [HPPD inhibitor, 4-[4-trifluoromethyl-2-(methylsulphonyl)benzoyl]-5-cyclopropylisoxazole]
inhibition of the enzyme transforming HPP into HPA [1]: not inhibited | inhibition of the enzyme transforming HPA into HMO [2]: not inhibited
